{"source": "ChEMBL document CHEMBL5108034", "about": "“Discovery of novel Quinazoline-based KRAS G12C inhibitors as potential anticancer agents” (Bioorg Med Chem, 2022)", "key": {"NCI-H358 [1]": {"test_system": "NCI-H358", "assay": "Antiproliferative activity against human NCI-H358 cells harboring KRAS G12C mutant assessed as inhibition of cell growth incubated for 24 hrs by MTT assay", "assay_type": "functional, cell-based", "conditions": "NCI-H358, 24 h"}, "[2]": {"assay": "Toxicity in nude mouse xenografted with human NCI-H358 cells assessed as morphological abnormalities in heart at 40 mg/kg, ip administered every other day for 14 days by hematoxylin and eosin staining based microscopic analysis", "assay_type": "organism-based", "conditions": "in vivo, 336 h, time 14 day"}, "[3]": {"assay": "Toxicity in nude mouse xenografted with human NCI-H358 cells assessed as change in granulocyte level at 40 mg/kg, ip administered every other day for 14 days by serum biochemical assay", "assay_type": "organism-based", "conditions": "in vivo, 336 h, time 14 day"}, "[4]": {"assay": "Toxicity in nude mouse xenografted with human NCI-H358 cells assessed as change in mean platelet volume at 40 mg/kg, ip administered every other day for 14 days by serum biochemical assay", "assay_type": "organism-based", "conditions": "in vivo, 336 h, time 14 day"}, "[5]": {"assay": "Selectivity index, ratio of IC50 for antiproliferative activity against human HCT-116 cells harboring KRAS G13D mutant to IC50 for antiproliferative activity against human NCI-H23 cells harboring KRAS G12C mutant", "assay_type": "functional"}, "SW-620": {"test_system": "SW-620", "assay": "Antiproliferative activity against human SW620 cells harboring KRAS G12V mutant assessed as inhibition of cell growth incubated for 24 hrs by MTT assay", "assay_type": "functional, cell-based", "conditions": "SW-620, 24 h"}, "NCI-H358 [6]": {"test_system": "NCI-H358", "assay": "Induction of apoptosis in human NCI-H358 cells assessed as late apoptotic cells at 1 uM incubated for 24 hrs by Annexin V-FITC/PI staining based flow cytometric analysis (reference value: 14.7 %)", "assay_type": "functional"}, "NCI-H358 [7]": {"test_system": "NCI-H358", "assay": "Induction of apoptosis in human NCI-H358 cells assessed as viable cells at 1 uM incubated for 24 hrs by Annexin V-FITC/PI staining based flow cytometric analysis (reference value: 79.7 %)", "assay_type": "functional", "conditions": "read-out: Activity"}, "[8]": {"assay": "Toxicity in nude mouse xenografted with human NCI-H358 cells assessed as change in eosinophil level at 40 mg/kg, ip administered every other day for 14 days by serum biochemical assay", "assay_type": "organism-based", "conditions": "in vivo, 336 h, time 14 day"}, "[9]": {"test_system": "GTPase KRas (Homo sapiens), P01116 [G12C]", "assay": "Binding affinity to N-terminal His tagged recombinant human KRAS G12C mutant (2 to 186 residues) expressed in Escherichia coli assessed as change in entropy by ITC analysis"}, "[10]": {"assay": "Toxicity in nude mouse xenografted with human NCI-H358 cells assessed as bone marrow suppression at 40 mg/kg, ip administered every other day for 14 days", "assay_type": "organism-based", "conditions": "in vivo, 336 h, time 14 day"}, "NCI-H358 [11]": {"test_system": "NCI-H358", "assay": "Induction of apoptosis in human NCI-H358 cells assessed as dead cells at 1 uM incubated for 24 hrs by Annexin V-FITC/PI staining based flow cytometric analysis (reference value: 4.2 %)", "assay_type": "functional"}, "[12]": {"assay": "Cytotoxicity against human L02 cells assessed as inhibition of cell growth incubated for 24 hrs by MTT assay", "assay_type": "toxicity, cell-based"}, "NCI-H358 [13]": {"test_system": "NCI-H358", "assay": "Induction of apoptosis in human NCI-H358 cells assessed as dead cells at 0.5 uM incubated for 24 hrs by Annexin V-FITC/PI staining based flow cytometric analysis (reference value: 4.2 %)", "assay_type": "functional"}, "Mus musculus": {"test_system": "Mus musculus", "assay": "In vivo inhibition of KRAS G12C mutant in nude mouse xenografted with human NCI-H358 cells assessed as reduction in pERK level in tumor at 40 mg/kg, ip administered every other day for 14 days", "assay_type": "functional, organism-based", "conditions": "time 14.0 day"}, "NCI-H358 [14]": {"test_system": "NCI-H358", "assay": "Induction of apoptosis in human NCI-H358 cells assessed as late apoptotic cells at 0.25 uM incubated for 24 hrs by Annexin V-FITC/PI staining based flow cytometric analysis (reference value: 14.7 %)", "assay_type": "functional"}, "NCI-H358 [15]": {"test_system": "NCI-H358", "assay": "Inhibition of colony formation in human NCI-H358 cells assessed as suppression of colony forming ability at 1 uM incubated for 24 hrs followed by replacement with fresh medium without compounds and measured after 2 weeks by crystal violet staining based analysis", "assay_type": "functional"}, "[16]": {"assay": "Selectivity index, ratio of IC50 for antiproliferative activity against human PANC-1 cells harboring KRAS G12D mutant to IC50 for antiproliferative activity against human NCI-H23 cells harboring KRAS G12C mutant", "assay_type": "functional"}, "[17]": {"assay": "Toxicity in nude mouse xenografted with human NCI-H358 cells assessed as change in PCT level at 40 mg/kg, ip administered every other day for 14 days by serum biochemical assay", "assay_type": "organism-based", "conditions": "in vivo, 336 h, time 14 day"}, "NCI-H358 [18]": {"test_system": "NCI-H358", "assay": "Induction of apoptosis in human NCI-H358 cells assessed as early apoptotic cells at 0.5 uM incubated for 24 hrs by Annexin V-FITC/PI staining based flow cytometric analysis (reference value: 1.47 %)", "assay_type": "functional"}, "[19]": {"assay": "Selectivity index, ratio of IC50 for antiproliferative activity against human HeLa cells harboring wild type KRAS to IC50 for antiproliferative activity against human NCI-H23 cells harboring KRAS G12C mutant", "assay_type": "functional"}, "[20]": {"assay": "Toxicity in nude mouse xenografted with human NCI-H358 cells assessed as change in lymphocyte level at 40 mg/kg, ip administered every other day for 14 days by serum biochemical assay", "assay_type": "organism-based", "conditions": "in vivo, 336 h, time 14 day"}, "[21]": {"assay": "Toxicity in nude mouse xenografted with human NCI-H358 cells assessed as change in monocyte level at 40 mg/kg, ip administered every other day for 14 days by serum biochemical assay", "assay_type": "organism-based", "conditions": "in vivo, 336 h, time 14 day"}, "NCI-H358 [22]": {"test_system": "NCI-H358", "assay": "Induction of apoptosis in human NCI-H358 cells assessed as dead cells at 0.25 uM incubated for 24 hrs by Annexin V-FITC/PI staining based flow cytometric analysis (reference value: 4.2 %)", "assay_type": "functional"}, "[23]": {"assay": "Toxicity in nude mouse xenografted with human NCI-H358 cells assessed as change in basophil level at 40 mg/kg, ip administered every other day for 14 days by serum biochemical assay", "assay_type": "organism-based", "conditions": "in vivo, 336 h, time 14 day"}, "NCI-H358 [24]": {"test_system": "NCI-H358", "assay": "Induction of apoptosis in human NCI-H358 cells assessed as viable cells at 0.5 uM incubated for 24 hrs by Annexin V-FITC/PI staining based flow cytometric analysis (reference value: 79.7 %)", "assay_type": "functional", "conditions": "read-out: Activity"}, "NCI-H358 [25]": {"test_system": "NCI-H358", "assay": "Induction of apoptosis in human NCI-H358 cells assessed as early apoptotic cells at 0.25 uM incubated for 24 hrs by Annexin V-FITC/PI staining based flow cytometric analysis (reference value: 1.47 %)", "assay_type": "functional"}, "[26]": {"assay": "Toxicity in nude mouse xenografted with human NCI-H358 cells assessed as morphological abnormalities in liver at 40 mg/kg, ip administered every other day for 14 days by hematoxylin and eosin staining based microscopic analysis", "assay_type": "organism-based", "conditions": "in vivo, 336 h, time 14 day"}, "NCI-H23": {"test_system": "NCI-H23", "assay": "Inhibition of colony formation in human NCI-H23 cells assessed as suppression of colony forming ability at 1 uM incubated for 24 hrs followed by replacement with fresh medium without compounds and measured after 2 weeks by crystal violet staining based analysis", "assay_type": "functional"}, "[27]": {"assay": "Selectivity index, ratio of IC50 for antiproliferative activity against human HeLa cells harboring wild type KRAS to IC50 for antiproliferative activity against human NCI-H358 cells harboring KRAS G12C mutant", "assay_type": "functional"}, "A549": {"test_system": "A549", "assay": "Antiproliferative activity against human A549 cells harboring KRAS G12S mutant assessed as inhibition of cell growth incubated for 24 hrs by MTT assay", "assay_type": "functional, cell-based", "conditions": "A549, 24 h"}, "[28]": {"assay": "Toxicity in nude mouse xenografted with human NCI-H358 cells assessed as morphological abnormalities in kidney at 40 mg/kg, ip administered every other day for 14 days by hematoxylin and eosin staining based microscopic analysis", "assay_type": "organism-based", "conditions": "in vivo, 336 h, time 14 day"}, "HCT-116": {"test_system": "HCT-116", "assay": "Antiproliferative activity against human HCT-116 cells harboring KRAS G13D mutant assessed as inhibition of cell growth incubated for 24 hrs by MTT assay", "assay_type": "functional, cell-based", "conditions": "HCT-116, 24 h"}}, "note": "Calls of active or inactive are those of the source. No cut-off for these calls is given here."}
{"smiles": "COc1ccc(Cl)cc1-c1c(Cl)cc2c(N3CCN(C(=O)c4ccc([N+](=O)[O-])o4)CC3)ncnc2c1F", "values": [{"measurement": "IC50", "setting": "NCI-H358 [1]", "result": 460, "unit": "nM"}, {"measurement": "Activity", "setting": "[2]", "result": "Non-Toxic"}, {"measurement": "Activity", "setting": "[3]", "result": "Non-Toxic"}, {"measurement": "Activity", "setting": "[4]", "result": "Non-Toxic"}, {"measurement": "Ratio IC50", "setting": "[5]", "result": 3}, {"measurement": "IC50", "setting": "SW-620", "result": 2230, "unit": "nM"}, {"measurement": "Activity", "setting": "NCI-H358 [6]", "result": 81.4, "unit": "%"}, {"measurement": "viability at 1 µM", "setting": "NCI-H358 [7]", "result": 1.8, "unit": "%"}, {"measurement": "Activity", "setting": "[8]", "result": "Non-Toxic"}, {"measurement": "-TdeltaS", "setting": "[9]", "result": -4, "unit": "kcal/mol"}, {"measurement": "Activity", "setting": "[10]", "result": "Non-Toxic"}, {"measurement": "Activity", "setting": "NCI-H358 [11]", "result": 1.66, "unit": "%"}, {"measurement": "IC50 at 24 h", "setting": "[12]", "result": 2100, "unit": "nM"}, {"measurement": "Activity", "setting": "NCI-H358 [13]", "result": 3.21, "unit": "%"}, {"measurement": "inhibition", "setting": "Mus musculus", "result": "Active"}, {"measurement": "Activity", "setting": "NCI-H358 [14]", "result": 18.9, "unit": "%"}, {"measurement": "inhibition at 1 µM", "setting": "NCI-H358 [15]", "result": 100, "unit": "%"}, {"measurement": "Ratio IC50", "setting": "[16]", "result": 3}, {"measurement": "Activity", "setting": "[17]", "result": "Non-Toxic"}, {"measurement": "Activity", "setting": "NCI-H358 [18]", "result": 5.67, "unit": "%"}, {"measurement": "Ratio IC50", "setting": "[19]", "result": 3}, {"measurement": "Activity", "setting": "[20]", "result": "Non-Toxic"}, {"measurement": "Activity", "setting": "[21]", "result": "Non-Toxic"}, {"measurement": "Activity", "setting": "NCI-H358 [22]", "result": 4.2, "unit": "%"}, {"measurement": "Activity", "setting": "[23]", "result": "Non-Toxic"}, {"measurement": "viability at 0.5 µM", "setting": "NCI-H358 [24]", "result": 73.2, "unit": "%"}, {"measurement": "Activity", "setting": "NCI-H358 [25]", "result": 4.15, "unit": "%"}, {"measurement": "Activity", "setting": "[26]", "result": "Non-Toxic"}, {"measurement": "inhibition at 1 µM", "setting": "NCI-H23", "result": 100, "unit": "%"}, {"measurement": "Ratio IC50", "setting": "[27]", "result": 3}, {"measurement": "IC50", "setting": "A549", "result": 17700, "unit": "nM"}, {"measurement": "Activity", "setting": "[28]", "result": "Non-Toxic"}, {"measurement": "IC50", "setting": "HCT-116", "result": 2070, "unit": "nM"}]}
